Source: US20220023358A1, “COMBINATION THERAPIES OF MICROORGANISMS AND IMMUNE MODULATORS FOR USE IN TREATING CANCER” (Synlogic Operating Company, Inc., priority 2018, published 2022)

Experiments:
[1] = tested on: WT, TLR4−/− and STING−/− BMDCs; assay: Cytokine mRNA in WT, TLR4−/− and STING−/− BMDCs; format: cell-based, murine; conditions: 4 hours
Protocol: (§1) In indicated groups cells were pre-treated with for lh with Cytochalasin D (10 μM). Macrophages or BMDCs incubated in media alone served as a negative control. Cells were analyzed for the upregulation of Ifnbl and 116 mRNA (FIGS. 7D-7G). WT, TLR4^−/− and STING-^−/− BMDCs were treated with Control EcN (MOI: 25), pre-induced SYN1891 (MOI: 25), LPS (100 ng/mL), or smSTING agonist (5 μg/mL) for 4 hours. Cells were analyzed for the upregulation of Ifnb1, Il6 and Il12a mRNA (FIGS. 7H-7J). Data are representative of two or more independent experiments with mean and standard deviation shown. **P<0.005; ***P<0.0005; ****P<0.00001; two-tailed unpaired Student's t-test comparing the indicated groups.
LPS is an integral component of the outer membrane of Gram-negative bacteria and as such LPS recognition by TLR4 plays an important role in the induction of immune responses by these microbes.

[2] = tested on: RAW 264.7 macrophages or WT BMDCs; assay: Cytokine mRNA in RAW 264.7 macrophages or WT BMDCs, with or without Cytochalasin D; format: cell-based, murine
Protocol: as §1
To evaluate the mechanism of action of SYNB1891 in the induction of type I IFNs, bacterial phagocytosis was blocked using cytochalasin D. Cytochalasin D inhibits actin polymerization and prevents phagocytosis, yet it has minimal effect on endocytosis/pinocytosis of soluble small molecules. […] Therefore, phagocytosis of SYNB1891 is required for intracellular CDA release and STING activation in target cells, providing a natural mechanism for preferential activation of APCs in the tumor.

[3] = tested on: NK cells; conditions: first-in-human clinical trial; cited from earlier work
[4] = tested on: Hyaluronan or Hyaluronic acid (HA); conditions: mouse PDA tumors; cited from earlier work

Q: For `Nc1ncnc2c1ncn2[C@@H]1O[C@@H]2COP(O)(=S)O[C@@H]3C(O)[C@@H](COP(O)(=S)O[C@H]2[C@H]1O)O[C@H]3n1cnc2c(N)ncnc21` (stereo partly drawn) [smSTING agonist, 2′3′-c-di-AM(PS)2 (Rp,Rp)], which “IFNβ1 expression in STING−/− BMDCs” value ([1]; STING−/− BMDCs) is on record?
A: completely abrogated

Q: What about the “IFNβ1 expression in TLR4−/− BMDCs” value ([1]; TLR4−/− BMDCs) of the same molecule?
A: preserved

Q: And the Cytokines expressed ([2]; 4 hours, 5 μg/mL)?
A: led only to IFNβ1 expression

Q: And the “IFNβ1 induction, effect of Cytochalasin D” value ([2]; Cytochalasin D pre-treatment)?
A: did not affect

Q: With “recombinant human IL-15: recombinant human IL-15 cytokine” as the molecule, how does the “Expansion of NK cells” value [3] read?
A: 10 fold

B1: PEGPH20: PEGylated form of rHuPH20, a hyaluronidase (protein, UniProt P38567 36-490, looked up)
Hyaluronidase PH-20: LNFRAPPVIPNVPFLWAWNAPSEFCLGKFDEPLDMSLFSFIGSPRINATGQGVTIFYVDRLGYYPYIDSITGVTVNGGIPQKISLQDHLDKAKKDITFYMPVDNLGMAVIDWEEWRPTWARNWKPKDVYKNRSIELVQQQNVQLSLTEATEKAKQEFEKAGKDFLVETIKLGKLLRPNHLWGYYLFPDCYNHHYKKPGYNGSCFNVEIKRNDDLSWLWNESTALYPSIYLNTQQSPVAATLYVRNRVREAIRVSKIPDAKSPLPVFAYTRIVFTDQVLKFLSQDELVYTFGETVALGASGIVIWGTLSIMRSMKSCLLLDNYMETILNPYIINVTLAAKMCSQVLCQEQGVCIRKNWNSSDYLHLNPDNFAIQLEKGGKFTVRGKPTLEDLEQFSEKFYCSCYSTLSCKEKADVKDTDAVDVCIADGVCIDAFLKPPMETEEPQIFYNASPSTLS
modifications: PEG
notes: PEGylated form of rHuPH20, a hyaluronidase
Q: For B1, which “Interstitial fluid pressure after treatment” value [4] is on record?
A: 20-30 mmHg
